Laboratory results reported in US20060058312A1, “Stabilized aqueous preparation for injection” (priority 2004, published 2006).

Experiments:
[1] = Stability test at 60° C., effect of pH value without ascorbic acid (Example 3), HPLC content; assay type: physicochemical; conditions: no addition of ascorbic acid; for remaining calcium levofolinate content compared with the initial value (100): 60° C.
Procedure: For the aqueous preparations obtained in (1) to (3) above, tests evaluating stability at 60° C./3 weeks were performed. The calcium levofolinate content remaining in the aqueous solution was measured using high performance liquid chromatography under the following conditions (the same were employed in the following experiments) 2 ml each of the test preparations were weighed, and 10 ml of the internal standard solution described below (the same was employed in the following experiments) were added thereto. Subsequently, water was added to adjust the total volume of the solution to 50 ml, thereby to prepare a test solution. Meanwhile, 62.5 mg of calcium levofolinate were dissolved in water so as to prepare a 25 ml solution. Then, to 10 ml of the resultant solution were added 10 ml of the internal standard solution, and the total volume of the solution was adjusted to 50 ml by adding water, thereby to prepare a standard solution. For 20 μl of the standard solution and the test solution, the content of calcium levofolinate was measured by the liquid chromatography method under the following conditions.
1) Measurement Conditions • Detector: Ultraviolet absorptiometer (Measurement wavelength: 254 nm) • Column: A stainless tube having an internal diameter of 4.0 mm and a length of 15 cm was filled with 5 μm of octadecylsilylated silica gel for liquid chromatography. • Column temperature: A constant temperature near 45° C. • Mobile phase: The pH value of a mixed test solution containing 0.008 mol/L of disodium hydrogen phosphate solution/methanol/40% aqueous tetrabutylammonium hydroxide solution (385:110:1.3 (volume ratio)) was adjusted to 7.5 by adding phosphoric acid. • Flow rate: The flow rate was regulated so that the retention time of calcium levofolinate became about 10 minutes. • Internal standard solution: A solution prepared by adding water to 0.04 g of methyl parahydroxybenzoate so that the whole amount of solution is 100 ml.
About 80 ml of water for injection were added to a beaker (volume: 200 ml). Then, 0.56 g of sodium chloride and 0.3 g of tromethamine were added to it with bubbling of nitrogen gas, and the components were dissolved with stirring and heating to 45 to 50° C. Subsequently, 1.375 g of calcium levofolinate (1.1 g, in terms of 5-formyl-(6S)-tetrahydrofolic acid) were added, and the components were dissolved with stirring. Thereafter, the pH value of the solution was adjusted to 6.0 by adding 5% hydrochloric acid solution dropwise. A similar procedure to the above was performed to produce solutions, each having a regulated pH value of 7.0, 7.5, 7.9, 8.1, 8.3, 8.7, 9.0, 9.2, and 9.5 (1% aqueous sodium hydroxide solution was used in place of 5% hydrochloric acid solution).
Water for injection was further added to each solution to adjust the total volume of the solution to 100 ml. Subsequently, the bubbling of nitrogen gas was stopped, and each solution was filtered with a filtration filter, thereby to yield a solution for injection. Subsequently, each of nine 5 ml-glass ampules the inside space of which had been substituted by nitrogen gas was filled with 5 ml of the resultant solution for injection, and was sealed by heating.
For each aqueous preparation obtained as above, a test evaluating stability at 60° C. was performed by measuring the remaining levofolinate content by the high performance liquid chromatography method. […] In the cases of pH 6 to 7 and pH 8.7 to pH 9, an extremely excellent stabilizing effect was confirmed.

[2] = Transmittance and coloring of the aqueous solution during storage; assay type: physicochemical; conditions: aqueous solution
Source text: The suppressing effect can be attained by the action of ascorbic acid which has been stabilized by sodium pyrosulfite.

remaining calcium levofolinate content compared with the initial value (100) ([1]; pH value 6.0, 1 month): 88.7 | remaining calcium levofolinate content compared with the initial value (100) ([1]; pH value 6.0, 1 week): 94.7 | remaining calcium levofolinate content compared with the initial value (100) ([1]; pH value 6.0, 2 weeks): 92.5 | remaining calcium levofolinate content compared with the initial value (100) ([1]; pH value 6.0, 3 weeks): 90.1 | calcium levofolinate content, Initial value (100) ([1]; pH value 6.0): 100 | remaining calcium levofolinate content compared with the initial value (100) ([1]; pH value 7.0, 1 month): 88.6 | remaining calcium levofolinate content compared with the initial value (100) ([1]; pH value 7.0, 1 week): 94.8 | remaining calcium levofolinate content compared with the initial value (100) ([1]; pH value 7.0, 2 weeks): 92.2 | remaining calcium levofolinate content compared with the initial value (100) ([1]; pH value 7.0, 3 weeks): 90.1 | calcium levofolinate content, Initial value (100) ([1]; pH value 7.0): 100 | remaining calcium levofolinate content compared with the initial value (100) ([1]; pH value 7.5, 1 month): 84.2 | remaining calcium levofolinate content compared with the initial value (100) ([1]; pH value 7.5, 1 week): 93.4 | remaining calcium levofolinate content compared with the initial value (100) ([1]; pH value 7.5, 2 weeks): 89.0 | remaining calcium levofolinate content compared with the initial value (100) ([1]; pH value 7.5, 3 weeks): 86.8 | calcium levofolinate content, Initial value (100) ([1]; pH value 7.5): 100 | remaining calcium levofolinate content compared with the initial value (100) ([1]; pH value 7.9, 1 month): 81.9 | remaining calcium levofolinate content compared with the initial value (100) ([1]; pH value 7.9, 1 week): 95.1 | remaining calcium levofolinate content compared with the initial value (100) ([1]; pH value 7.9, 2 weeks): 89.7 | remaining calcium levofolinate content compared with the initial value (100) ([1]; pH value 7.9, 3 weeks): 86.3 | calcium levofolinate content, Initial value (100) ([1]; pH value 7.9): 100 | remaining calcium levofolinate content compared with the initial value (100) ([1]; pH value 8.1, 1 week): 95.4 | remaining calcium levofolinate content compared with the initial value (100) ([1]; pH value 8.1, 2 weeks): 91.5 | remaining calcium levofolinate content compared with the initial value (100) ([1]; pH value 8.1, 3 weeks): 85.6 | calcium levofolinate content, Initial value (100) ([1]; pH value 8.1): 100 | remaining calcium levofolinate content compared with the initial value (100) ([1]; pH value 8.3, 1 week): 93.6 | remaining calcium levofolinate content compared with the initial value (100) ([1]; pH value 8.3, 2 weeks): 91.1 | remaining calcium levofolinate content compared with the initial value (100) ([1]; pH value 8.3, 3 weeks): 85.5 | calcium levofolinate content, Initial value (100) ([1]; pH value 8.3): 100 | remaining calcium levofolinate content compared with the initial value (100) ([1]; pH value 8.7, 1 week): 94.7 | remaining calcium levofolinate content compared with the initial value (100) ([1]; pH value 8.7, 2 weeks): 93.6 | remaining calcium levofolinate content compared with the initial value (100) ([1]; pH value 8.7, 3 weeks): 88.3 | calcium levofolinate content, Initial value (100) ([1]; pH value 8.7): 100 | remaining calcium levofolinate content compared with the initial value (100) ([1]; pH value 9.0, 1 week): 96.1 | remaining calcium levofolinate content compared with the initial value (100) ([1]; pH value 9.0, 2 weeks): 93.3 | remaining calcium levofolinate content compared with the initial value (100) ([1]; pH value 9.0, 3 weeks): 88.6 | calcium levofolinate content, Initial value (100) ([1]; pH value 9.0): 100 | remaining calcium levofolinate content compared with the initial value (100) ([1]; pH value 9.2, 1 week): 94.4 | remaining calcium levofolinate content compared with the initial value (100) ([1]; pH value 9.2, 2 weeks): 93.4 | remaining calcium levofolinate content compared with the initial value (100) ([1]; pH value 9.2, 3 weeks): 87.7 | calcium levofolinate content, Initial value (100) ([1]; pH value 9.2): 100 | remaining calcium levofolinate content compared with the initial value (100) ([1]; pH value 9.5, 1 week): 93.7 | remaining calcium levofolinate content compared with the initial value (100) ([1]; pH value 9.5, 2 weeks): 92.4 | remaining calcium levofolinate content compared with the initial value (100) ([1]; pH value 9.5, 3 weeks): 85.3 | calcium levofolinate content, Initial value (100) ([1]; pH value 9.5): 100 | transmittance of the aqueous solution during storage [2]: lowers gradually
Structure (SMILES): Nc1nc(=O)c2c([nH]1)NC[C@H](CNc1ccc(C(=O)N[C@@H](CCC(=O)O)C(=O)O)cc1)N2C=O [calcium levofolinate, (6S)-N-[4-[[(2-amino-5-formyl-1,4,5,6,7,8-hexahydro-4-oxo-6-pteridinyl)methyl]amino]benzoyl]-L-glutamic acid]
